Where “and” joins values, the source holds several entries; their conditions need not be identical. Identical values can stand only once. Toxic doses and inconclusive results are not listed. No stated cut-off is given here; in the data, active means T/C of 150% or more; inactive means T/C below 125%.
Tested on: L1210 leukemia ip in BDF1 mice, survival T/C
Test: NCI In Vivo Anticancer Drug Screen. Data for tumor model L1210 Leukemia (intraperitoneal) in B6D2F1 (BDF1) mice
Settings: endpoint: mean survival time, higher = longer survival
How it was run: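 Value reflects the ratio of survival in compound-treated mice to survival in vehicle-treated controls, with both groups carrying the same transplanted tumor.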

[1] = dose: 50.0 mg/kg/injection, schedule: Q04DX003 (ip), vehicle: Klucel (hydroxypropylcellulose) (HPC)
[2] = dose: 100.0 mg/kg/injection, schedule: Q01DX001 (ip), vehicle: Klucel (hydroxypropylcellulose) (HPC)
[3] = dose: 100.0 mg/kg/injection, schedule: Q04DX003 (ip), vehicle: Klucel (hydroxypropylcellulose) (HPC)
[4] = dose: 200.0 mg/kg/injection, schedule: Q01DX001 (ip), vehicle: Klucel (hydroxypropylcellulose) (HPC)
[5] = dose: 100.0 mg/kg/injection, schedule: Q01DX009 (ip), vehicle: Klucel (hydroxypropylcellulose) (HPC)
[6] = dose: 100.0 mg/kg/injection, schedule: Q04DX002 (ip), vehicle: Klucel (hydroxypropylcellulose) (HPC)
[7] = dose: 200.0 mg/kg/injection, schedule: Q01DX009 (ip), vehicle: Klucel (hydroxypropylcellulose) (HPC)
[8] = dose: 200.0 mg/kg/injection, schedule: Q04DX002 (ip), vehicle: Klucel (hydroxypropylcellulose) (HPC)
[9] = dose: 400.0 mg/kg/injection, schedule: Q04DX002 (ip), vehicle: Klucel (hydroxypropylcellulose) (HPC)
[10] = dose: 100.0 mg/kg/injection, schedule: Q04DX002 (ip), vehicle: saline
[11] = dose: 200.0 mg/kg/injection, schedule: Q04DX002 (ip), vehicle: saline
[12] = dose: 400.0 mg/kg/injection, schedule: Q04DX002 (ip), vehicle: saline
[13] = dose: 5.0 mg/kg/injection, schedule: Q01DX001 (ip), vehicle: saline
[14] = dose: 100.0 mg/kg/injection, schedule: Q04DX003 (ip), vehicle: saline with Tween-80
[15] = dose: 200.0 mg/kg/injection, schedule: Q04DX003 (ip), vehicle: saline with Tween-80
[16] = dose: 400.0 mg/kg/injection, schedule: Q04DX003 (ip), vehicle: saline with Tween-80
[17] = dose: 100.0 mg/kg/injection, schedule: Q01DX001 (ip), vehicle: carboxymethylcellulose (CMC)
[18] = dose: 400.0 mg/kg/injection, schedule: Q01DX001 (ip), vehicle: carboxymethylcellulose (CMC)

Measured: T/C

Cc1ccc2[nH]c3c(c2c1)C[P+](Cc1cccc2ccccc12)(c1ccccc1)CC3 (configuration not stated)
inactive: dose: 25.0 mg/kg/injection, schedule: Q01DX001 (ip), vehicle: Klucel (hydroxypropylcellulose) (HPC) 87 % of control | dose: 25.0 mg/kg/injection, schedule: Q04DX003 (ip), vehicle: Klucel (hydroxypropylcellulose) (HPC) 91 % of control | dose: 50.0 mg/kg/injection, schedule: Q01DX001 (ip), vehicle: Klucel (hydroxypropylcellulose) (HPC) 92 % of control | [1] 105 % of control | [2] 112 % of control and 86 % of control | [3] 99 % of control | [4] 95 % of control

C=C(C)COC(OCC(=C)C)C(C)C
inactive: [5] 96 % of control | [6] 102 % of control | [7] 89 % of control | [8] 109 % of control | [9] 112 % of control

O=C(O)C(Nc1cccc2ccccc12)c1ccccc1 (configuration not stated)
inactive: [6] 97 % of control | [8] 111 % of control

COC1C(C(=O)O)=CC=CC1OC(C)=O (configuration not stated)
inactive: dose: 100.0 mg/kg/injection, schedule: Q01DX001 (ip), vehicle: saline 90 % of control | dose: 200.0 mg/kg/injection, schedule: Q01DX001 (ip), vehicle: saline 102 % of control | dose: 400.0 mg/kg/injection, schedule: Q01DX001 (ip), vehicle: saline 104 % of control

CCOC(=O)/C(C#N)=C\c1ccc(N(C)CCC#N)cc1
inactive: [5] 100 % of control | [7] 96 % of control | dose: 400.0 mg/kg/injection, schedule: Q01DX009 (ip), vehicle: Klucel (hydroxypropylcellulose) (HPC) 94 % of control

Nc1nnc(N)c2ccccc12
inactive: [10] 100 % of control | [11] 96 % of control | [12] 102 % of control

c1ccc(C[n+]2ccc(-c3cc[n+](Cc4ccccc4)cc3)cc2)cc1
inactive: [13] 109 % of control

O=[N+]([O-])c1cccc(S(=O)(=O)Oc2ccc(-c3ccccc3)cc2)c1
inactive: [14] 96 % of control | [15] 91 % of control | [16] 90 % of control

Cc1cccn1C(C)c1ccccc1 (configuration not stated)
inactive: [14] 97 % of control | [15] 94 % of control | [16] 97 % of control

CCC(=O)OC1(c2ccccc2)CCN(CCC(O)c2ccccc2)CC1 (configuration not stated)
inactive: dose: 3.13 mg/kg/injection, schedule: Q01DX009 (ip), vehicle: Klucel (hydroxypropylcellulose) (HPC) 98 % of control | dose: 6.25 mg/kg/injection, schedule: Q01DX009 (ip), vehicle: Klucel (hydroxypropylcellulose) (HPC) 104 % of control | dose: 12.5 mg/kg/injection, schedule: Q01DX009 (ip), vehicle: Klucel (hydroxypropylcellulose) (HPC) 95 % of control | dose: 25.0 mg/kg/injection, schedule: Q01DX009 (ip), vehicle: Klucel (hydroxypropylcellulose) (HPC) 94 % of control

C[Si](C)(C)Oc1cc(N=NNC2=CC(=O)c3ccccc3C2=O)c(O)c2ccccc12
inactive: dose: 12.5 mg/kg/injection, schedule: Q04DX003 (ip), vehicle: saline with Tween-80 93 % of control | dose: 25.0 mg/kg/injection, schedule: Q04DX003 (ip), vehicle: saline with Tween-80 93 % of control | dose: 50.0 mg/kg/injection, schedule: Q04DX003 (ip), vehicle: saline with Tween-80 94 % of control | [16] 97 % of control

O=C(Nc1ccc(Cl)cc1)c1ccccc1Cl
inactive: [6] 93 % of control | [8] 100 % of control | [9] 100 % of control

Brc1ccc(-c2csc(Nc3nc(-c4ccc(Br)cc4)cs3)n2)cc1
inactive: [17] 102 % of control | dose: 200.0 mg/kg/injection, schedule: Q01DX001 (ip), vehicle: carboxymethylcellulose (CMC) 98 % of control | dose: 250.0 mg/kg/injection, schedule: Q01DX015 (ip), vehicle: carboxymethylcellulose (CMC) 100 % of control | [18] 107 % of control | dose: 500.0 mg/kg/injection, schedule: Q01DX015 (ip), vehicle: carboxymethylcellulose (CMC) 100 % of control | dose: 750.0 mg/kg/injection, schedule: Q01DX015 (ip), vehicle: carboxymethylcellulose (CMC) 113 % of control | dose: 1000.0 mg/kg/injection, schedule: Q01DX015 (ip), vehicle: carboxymethylcellulose (CMC) 100 % of control

COc1ccc(C(O)S(=O)(=O)O)cc1 (configuration not stated)
inactive: dose: 100.0 mg/kg/injection, schedule: Q04DX003 (ip), vehicle: saline 98 % of control | dose: 200.0 mg/kg/injection, schedule: Q04DX003 (ip), vehicle: saline 100 % of control | dose: 400.0 mg/kg/injection, schedule: Q04DX003 (ip), vehicle: saline 100 % of control

Oc1cccc2cccnc12
inactive: [17] 100 % of control | [18] 96 % of control

CC1CC[N-]CC1.CC1CC[N-]CC1.CC1CC[N-]CC1.CC1CC[N-]CC1.[Pt+4]
inactive: dose: 0.39 mg/kg/injection, schedule: Q01DX009 (ip), vehicle: saline 100 % of control | dose: 0.39 mg/kg/injection, schedule: Q04DX003 (ip), vehicle: saline 97 % of control | dose: 0.78 mg/kg/injection, schedule: Q01DX009 (ip), vehicle: saline 92 % of control | dose: 0.78 mg/kg/injection, schedule: Q04DX003 (ip), vehicle: saline 100 % of control | dose: 1.56 mg/kg/injection, schedule: Q01DX009 (ip), vehicle: saline 94 % of control | dose: 1.56 mg/kg/injection, schedule: Q04DX003 (ip), vehicle: saline 102 % of control | dose: 3.12 mg/kg/injection, schedule: Q04DX003 (ip), vehicle: saline 96 % of control

CCCC[P+](CCCC)(CCCC)CCCC
inactive: [13] 102 % of control | dose: 6.25 mg/kg/injection, schedule: Q04DX002 (ip), vehicle: Klucel (hydroxypropylcellulose) (HPC) 89 % of control | dose: 10.0 mg/kg/injection, schedule: Q01DX001 (ip), vehicle: saline 123 % of control | dose: 12.5 mg/kg/injection, schedule: Q04DX002 (ip), vehicle: Klucel (hydroxypropylcellulose) (HPC) 103 % of control | dose: 20.0 mg/kg/injection, schedule: Q01DX001 (ip), vehicle: saline 104 % of control | dose: 25.0 mg/kg/injection, schedule: Q04DX002 (ip), vehicle: Klucel (hydroxypropylcellulose) (HPC) 95 % of control and 104 % of control

BrCc1cccc2cccc(CBr)c12
inactive: [1] 97 % of control | [2] 113 % of control | [3] 101 % of control | [4] 111 % of control | dose: 200.0 mg/kg/injection, schedule: Q04DX003 (ip), vehicle: Klucel (hydroxypropylcellulose) (HPC) 103 % of control

CCCCCCP(=O)(CCCCCC)C1CCCC1
inactive: [14] 91 % of control | [15] 92 % of control

Cc1ccc(NCC2(/N=C/c3ccccc3)OC(CO)C(O)C2O)cc1 (configuration not stated)
inactive: [6] 97 % of control | [8] 102 % of control | [9] 102 % of control

CCCCCCCCCC(=O)N1CCC(C)CC1
inactive: [10] 111 % of control | [11] 104 % of control | [12] 101 % of control

C=CCCC/C(C)=N/NS(=O)(=O)c1ccc(C)cc1
inactive: dose: 50.0 mg/kg/injection, schedule: Q01DX009 (ip), vehicle: saline with Tween-80 112 % of control | dose: 100.0 mg/kg/injection, schedule: Q01DX009 (ip), vehicle: saline with Tween-80 92 % of control | dose: 200.0 mg/kg/injection, schedule: Q01DX009 (ip), vehicle: saline with Tween-80 106 % of control

From PubChem BioAssay AID248 (DTP/NCI, 2004)
